The text below walks through data of patent publication US20240383852A1, “ANTI-VIRAL COMPOUNDS” (INFEX Therapeutics Limited, priority 2021, published 2024).

One may read the IC50 as the concentration that gives 50% inhibition.

In data set [1] the test system is human Hep G2 cells (ATCC HB-8065). In words: Cytotoxicity in Hep G2 cells (CellTiter-Glo). The data set is classed as cell-based. As to conditions: Hep G2 cells, 100 μM test article, 24-hour exposure.
The target in the next data set is T1, SARS-CoV-2 PLpro (Severe acute respiratory syndrome coronavirus 2, UniProt P0DTD1).
T1 construct: containing 60 nM papain-like protease
In words: biochemical. The conditions noted are these: 60 nM papain-like protease, 50 μM Z-RLRGG-AMC, pH 7.5, 37° C.; read-out: SARS-CoV-2 PLpro IC50.

Structures can show the parent of a compound that is named as a salt. A value given as a limit tells only on which side of the number the result lay.

Regarding `COc1ccc([C@@H](C)NC(=O)c2cc(N3CCN(CCO)CC3)ccc2C)cc1-c1cnn(C)c1` [Example 273, 5-[4-(2-Hydroxyethyl)piperazin-1-yl]-N-[(1R)-1-[4-methoxy-3-(1-methylpyrazol-4-yl)phenyl]ethyl]-2-methyl-benzamide], the “% Cell Viability” value in data set [1] turned out to be 92.6%. Besides, the IC50 on SARS-CoV-2 PLpro is < 5000 nM.

As for `Cc1ccc(N2CCN(C)CC2)cc1C(=O)N[C@H](C)c1cccc(-c2ccc(N3CCNCC3)cc2)c1` [Example 73, 2-Methyl-5-(4-methylpiperazin-1-yl)-N-[(1R)-1-[3-(4-piperazin-1-ylphenyl)phenyl]ethyl]benzamide dihydrochloride salt], in data set [1], the “% Cell Viability” value is recorded as 0.6%. Besides, on SARS-CoV-2 PLpro, the IC50 is < 2000 nM.

With `C[C@@H](NC(=O)c1cccc(N2CCNCC2)c1)c1cccc2ccccc12` [Example 158, N-[(1R)-1-(1-Naphthyl)ethyl]-3-piperazin-1-yl-benzamide Hydrochloride Salt], the “% Cell Viability” value in data set [1] was found to be 0.8%. Also, the IC50 on SARS-CoV-2 PLpro is < 5000 nM.

Turning to `C[C@@H](NC(=O)c1cc(N2CCNCC2)ccc1Cl)c1cccc2ccccc12` [Example 134, 2-Chloro-N-[(1R)-1-(1-naphthyl)ethyl]-5-piperazin-1-yl-benzamide], in data set [1], the “% Cell Viability” value is listed as 0.8%. Further, on SARS-CoV-2 PLpro, the IC50 is < 2000 nM.

Consider `Cc1ccc(N2CCN(C)CC2)cc1C(=O)N[C@H](C)c1cccc(-c2ccc(CO)s2)c1` [Example 79, N-[(1R)-1-[3-[5-(Hydroxymethyl)-2-thienyl]phenyl]ethyl]-2-methyl-5-(4-methylpiperazin-1-yl)benzamide], for which, in data set [1], the “% Cell Viability” value was 52.9%. Further, at SARS-CoV-2 PLpro, the IC50 was < 2000 nM.

With `Cc1ccc(C2CCNCC2)cc1C(=O)N[C@H](C)c1cccc2ccccc12` [Example 156, 2-Methyl-N-[(1R)-1-(1-napthyl)ethyl]-5-(4-piperidyl)benzamide], the “% Cell Viability” value in data set [1] is on record as 0.6%. The IC50 on SARS-CoV-2 PLpro is < 2000 nM.

With `Cc1ccc(N2CCN(C)CC2)cc1C(=O)N[C@H](C)c1cccc(-c2cccc(C(=O)NC[C@@H](O)CO)c2)c1` [Example 90], the “% Cell Viability” value in data set [1] is reported as 103.1%. Further, the IC50 at SARS-CoV-2 PLpro was < 2000 nM.

For the compound `Cc1ccc(N2CCN(CC(=O)N(C)C)CC2)cc1C(=O)N[C@H](C)c1cccc(-c2cnn(C)c2)c1` [Example 113, 5-[4-[2-(Dimethylamino)-2-oxo-ethyl]piperazin-1-yl]-2-methyl-N-[(1R)-1-[3-(1-methylpyrazol-4-yl)phenyl]ethyl]benzamide], the “% Cell Viability” value in data set [1] turned out to be 72.7%. Moreover, the half-maximal inhibitory concentration (IC50) on SARS-CoV-2 PLpro was < 20000 nM.

On to `Cc1ccc(N2CCN(C)CC2)cc1C(=O)N[C@H](C)c1cccc(-c2ccc(N)nc2)c1` [Example 67, N-[(1R)-1-[3-(6-Amino-3-pyridyl)phenyl]ethyl]-2-methyl-5-(4-methylpiperazin-1-yl)benzamide], for which the “% Cell Viability” value in data set [1] is 58.7%. Besides, at SARS-CoV-2 PLpro, the IC50 is < 2000 nM.

Turning to `COCCN1CCN(c2ccc(C)c(C(=O)N[C@H](C)c3cccc(-c4cnn(C)c4)c3)c2)CC1` [Example 114, 5-[4-(2-Methoxyethyl)piperazin-1-yl]-2-methyl-N-[(1R)-1-[3-(1-methylpyrazol-4-yl)phenyl]ethyl]benzamide], the “% Cell Viability” value in data set [1] came out at 59.0%. For the same compound, the IC50 at SARS-CoV-2 PLpro was < 5000 nM.

As to `COc1cc(-c2cc(C(=O)N(C)C)n(C)c2)cc([C@@H](C)NC(=O)c2cc(N3C[C@H]4C[C@@H]3CN4C)ccc2C)c1` [Example 290, 4-[3-Methoxy-5-[(1R)-1-[[2-methyl-5-[(1R,4R)-5-methyl-2,5-diazabicyclo[2.2.1]heptan-2-yl]benzoyl]amino]ethyl]phenyl]-N,N,1-trimethyl-pyrrole-2-carboxamide], the “% Cell Viability” value in data set [1] was 72.9%. Besides, the half-inhibitory concentration (IC50) at SARS-CoV-2 PLpro was < 2000 nM.

With `Cc1ccc(N2CCN(CCC(=O)O)CC2)cc1C(=O)N[C@H](C)c1cccc2ccccc12` [Example 162, 3-[4-[4-Methyl-3-[[(1R)-1-(1-naphthyl)ethyl]carbamoyl]phenyl]piperazin-1-yl]propanoic acid], the “% Cell Viability” value in data set [1] came out at 104.9%. Also, the IC50 at SARS-CoV-2 PLpro was < 2000 nM.

Consider `Cc1ccc(N2CCN(C)CC2)cc1C(=O)N[C@H](C)c1ccc(Br)cc1` [Example 24, N-[(1R)-1-(4-Bromophenyl)ethyl]-2-methyl-5-(4-methylpiperazin-1-yl)benzamide], for which the “% Cell Viability” value in data set [1] worked out at 70.7%. Besides, the IC50 on SARS-CoV-2 PLpro is < 10000 nM.

As for `COc1cc(Br)cc([C@@H](C)NC(=O)c2cc(N3CC4CN(C)CC4C3)ccc2C)c1` (stereo partly drawn) [Example 199, N-[(1R)-1-(3-Bromo-5-methoxy-phenyl)ethyl]-2-methyl-5-(2-methyl-1,3,3a,4,6,6a-hexahydropyrrolo[3,4-c]pyrrol-5-yl)benzamide], the “% Cell Viability” value in data set [1] worked out at 0.7%. For the same compound, the IC50 on SARS-CoV-2 PLpro is < 2000 nM.

With `Cc1ccc(N2CC[C@@H](N3CCCCC3)C2)cc1C(=O)N[C@H](C)c1cccc2ccccc12` [Example 129, 2-Methyl-N-[(1R)-1-(1-naphthyl)ethyl]-5-[(3R)-3-(1-piperidyl)pyrrolidin-1-yl]benzamide], in data set [1], the “% Cell Viability” value is 95.5%. The IC50 on SARS-CoV-2 PLpro is < 5000 nM.

For `COc1cc(-c2cnn(C)c2)cc([C@@H](C)NC(=O)c2cc(N3CC4CNCC4C3)ccc2C)c1` (stereo partly drawn) [Example 262, 5-(2,3,3a,4,6,6a-Hexahydro-1H-pyrrolo[3,4-c]pyrrol-5-yl)-N-[(1R)-1-[3-methoxy-5-(1-methylpyrazol-4-yl)phenyl]ethyl]-2-methyl-benzamide], in data set [1], the “% Cell Viability” value was found to be 42.4%. Further, the IC50 on SARS-CoV-2 PLpro was < 2000 nM.

For `Cc1ccc(N2CCN(CCO)CC2)cc1C(=O)N[C@H](C)c1cccc2ccccc12` [Example 111, 5-[4-(2-Hydroxyethyl)piperazin-1-yl]-2-methyl-N-[(1R)-1-(1-naphthyl)ethyl]benzamide], the “% Cell Viability” value in data set [1] was 74.8%. Also, the IC50 on SARS-CoV-2 PLpro was < 2000 nM.

`CNC(=O)c1cccc(-c2cccc([C@@H](C)NC(=O)c3cc(N4CCN(C)CC4)ccc3C)c2)c1` [Example 46, 2-Methyl-N-[(1R)-1-[3-[3-(methylcarbamoyl)phenyl]phenyl]ethyl]-5-(4-methylpiperazin-1-yl)benzamide]: the “% Cell Viability” value in data set [1] turned out to be 86.9%. Besides, at SARS-CoV-2 PLpro, the IC50 is < 2000 nM.

In the case of `COc1ccc([C@@H](C)NC(=O)c2cc(N3CCN(C)CC3)ccc2C)cc1Br` [Example 180, N-[(1R)-1-(3-Bromo-4-methoxy-phenyl)ethyl]-2-methyl-5-(4-methylpiperazin-1-yl)benzamide], in data set [1], the “% Cell Viability” value is recorded as 93.4%. Moreover, on SARS-CoV-2 PLpro, the IC50 is < 2000 nM.

For the compound `Cc1ccc(N2C[C@H]3C[C@@H]2CN3C)cc1C(=O)N[C@H](C)c1cccc(-c2cccc(C(C)(C)O)c2)c1` [Example 57, N-[(1R)-1-[3-[3-(1-Hydroxy-1-methyl-ethyl)phenyl]phenyl]ethyl]-2-methyl-5-[(1R,4R)-5-methyl-2,5-diazabicyclo[2.2.1]heptan-2-yl]benzamide], the “% Cell Viability” value in data set [1] is given as 0.9%. Besides, on SARS-CoV-2 PLpro, the IC50 is < 2000 nM.

Turning to `Cc1ccc(N2CCN(C)CC2)cc1C(=O)N[C@H](C)c1cccc(-c2cccc(N3CCNCC3)c2)c1` [Example 74, 2-Methyl-5-(4-methylpiperazin-1-yl)-N-[(1R)-1-[3-(3-piperazin-1-ylphenyl)phenyl]ethyl]benzamide], the “% Cell Viability” value in data set [1] is recorded as 0.6%. Moreover, the IC50 on SARS-CoV-2 PLpro is < 2000 nM.
